Values after ≈ are worked out from the molar mass of the structure shown. Like-named read-outs stand apart in the source and are kept apart here. Blank lines part the entries; values can stand above or below the molecule they belong to.
Key:
Test in all cases: In vitro MIC, broth microdilution (CLSI)
Format in all cases: cell-based
[1] = tested on: Enterococcus faecalis
Procedure: (§1) All test articles were dissolved in DMSO. Stock solutions were prepared at 40-fold the highest concentration in the test plate. The final concentration of DMSO in the test system was 2.5%.
(§2) The medium employed for the MIC assay was Mueller Hinton II Broth (MHB II-Becton Dickinson, #212322, Lot #9044411) for most of the organisms. MHB II was supplemented with 2% lysed horse blood (Cleveland Scientific Lot #22299-1) to accommodate the growth of Streptococcus pneumoniae, Streptococcus pyogenes and Streptococcus agalactiae. The media were prepared at 102.5% the normal weight to offset the dilution created by the addition of 5 μL drug solution to each well of the microdilution panels.
(§3) The MIC assay method followed the procedure described by the Clinical and Laboratory Standards Institute (see Clinical and Laboratory Standards Institute. Methods for Dilution Antimicrobial, Susceptibility Tests for Bacteria That Grow Aerobically; Approved Standard—Eighth Edition. CLSI document M07-A8 [ISBN 1-56238-689-1]. Clinical and Laboratory, Standards Institute, 940 West Valley Road, Suite 1400, Wayne, Pa. 19087-1898 USA, 2009) and employed automated liquid handlers to conduct serial dilutions and liquid transfers. Automated liquid handlers included the Multidrop 384 (Labsystems, Helsinki, Finland), Biomek 2000 and Multimek 96 (Beckman Coulter, Fullerton Calif.).
(§4) The wells of Columns 2-12 of standard 96-well microdilution plates (Falcon 3918) were filled with 150 μL of DMSO on the Multidrop 384. The drugs (300 μL) were dispensed into Column 1 of the appropriate row in these plates. These would become the mother plates from which the test plates (daughter plates) were prepared. The Biomek 2000 completed serial transfers through Column 11 in the mother plates. The wells of Column 12 contained no drug and were the organism growth control wells in the daughter plates. The daughter plates were loaded with 185 μL of the appropriate test media (described above) using the Multidrop 384. The daughter plates were prepared on the Multimek 96 instrument which transferred 5 μL of drug solution from each well of a mother plate to each corresponding well of each daughter plate in a single step. Therefore, the test agents were maintained in solution in 100% DMSO up until the point of being added to the final test medium.
(§5) Standardized inoculum of each organism was prepared per CLSI methods (See Clinical and Laboratory Standards Institute. Performance Standards for Antimicrobial Susceptibility Testing; Nineteenth Informational Supplement. CLSI document M100-S19 [ISBN 1-56238-690-5]. Clinical and Laboratory Standards Institute, 940 West Valley Road, Suite 1400, Wayne, Pa. 19087-1898 USA, 2009.). Suspensions were prepared in MHB to equal the turbidity of a 0.5 McFarland standard. The suspensions were diluted 1:9 in broth appropriate to the organism. The inoculum for each organism was dispensed into sterile reservoirs divided by width (Beckman Coulter), and the Biomek 2000 was used to inoculate the plates. Daughter plates were placed on the Biomek 2000 work surface reversed so that inoculation took place from low to high drug concentration. The Biomek 2000 delivered 10 μL of standardized inoculum into each well. This yielded a final cell concentration in the daughter plates of approximately 5×10^5 colony-forming-units/mL. Thus, the wells of the daughter plates ultimately contained 185 μL of broth, 5 μL of drug solution, and 10 μL of bacterial inoculum. The final concentration of DMSO in the assay plate was 2.5%.
(§6) Plates were stacked 3 high, covered with a lid on the top plate, placed in plastic bags, and incubated at 35° C. for approximately 18 hours for most of the isolates. The Streptococcus plates were read after 20 hours of incubation. The microplates were viewed from the bottom using a plate viewer. […] The MIC was read and recorded as the lowest concentration of drug that inhibited visible growth of the organism.

[2] = tested on: Staphylococcus epidermidis
Procedure: as §1, §2, §3, §4, §5, §6

[3] = tested on: Streptococcus pyogenes; conditions: MHB II with 2% lysed horse blood
Procedure: as §1, §2, §3, §4, §5, §6

[4] = tested on: Enterococcus faecium
Procedure: as §1, §2, §3, §4, §5, §6

[5] = tested on: Streptococcus pneumoniae; conditions: MHB II with 2% lysed horse blood
Procedure: as §1, §2, §3, §4, §5, §6

[6] = tested on: Streptococcus agalactiae; conditions: MHB II with 2% lysed horse blood
Procedure: as §1, §2, §3, §4, §5, §6

[7] = tested on: Staphylococcus aureus
Procedure: as §1, §2, §3, §4, §5, §6

Structure (SMILES): C[C@@H]1O[C@@H](Oc2c(-c3ccc(O)cc3)oc3cc(O)cc(O)c3c2=O)[C@H](OC(=O)/C=C/c2ccc(O)cc2)[C@H](OC(=O)/C=C/c2ccc(O)cc2)[C@H]1O [Compound 1, kaempferol 3-O-α-L-(2″,3″-di-E-p-coumaroyl)rhamnoside]
MIC ([1]; MMX 101, CLSI QC, ATCC 29212): 8 µg/mL (≈ 11 µM)
MIC ([1]; MMX 742, VSE, CHP): >8 µg/mL
MIC ([1]; MMX 3199, VSE, UCLA): 4 µg/mL (≈ 5.52 µM)
MIC ([1]; MMX 3821, VRE, Mt. Sinai): 4 µg/mL (≈ 5.52 µM)
MIC ([1]; MMX 3896, VSE, Mt. Sinai): 4 µg/mL (≈ 5.52 µM)
MIC ([1]; MMX 4131, VRE, CHP): 1 µg/mL (≈ 1.38 µM)
MIC ([1]; MMX 4160, VRE, UCLA): 4 µg/mL (≈ 5.52 µM)
MIC ([2]; MMX 762, MRSE, CHP): >8 µg/mL
MIC ([2]; MMX 826, MRSE, UCLA): 8 µg/mL (≈ 11 µM)
MIC ([2]; MMX 835, MSSE, UCLA): 4 µg/mL (≈ 5.52 µM)
MIC ([2]; MMX 3703, MSSE, CHP): 4 µg/mL (≈ 5.52 µM)
MIC ([2]; MMX 3752, MRSE, Mt. Sinai): >8 µg/mL
MIC ([2]; MMX 3763, MSSE, Mt. Sinai): 4 µg/mL (≈ 5.52 µM)
MIC ([3]; MMX 718, CHP): >16 µg/mL
MIC ([3]; MMX 2572, UCLA): >16 µg/mL
MIC ([3]; MMX 3928, Mt. Sinai): >16 µg/mL
MIC ([4]; MMX 0799, VSE, CHP): >8 µg/mL
MIC ([4]; MMX 0845, VSE, UCLA): 1 µg/mL (≈ 1.38 µM)
MIC ([4]; MMX 1238, VRE, Mt. Sinai): 0.5 µg/mL (≈ 0.69 µM)
MIC ([4]; MMX 1259, VSE, Mt. Sinai): >8 µg/mL
MIC ([4]; MMX 4024, VRE, CHP): >8 µg/mL
MIC ([4]; MMX 4048, VRE, UCLA): >8 µg/mL
MIC ([5]; MMX 748, PRSP, CHP): >16 µg/mL
MIC ([5]; MMX 866, PSSP, CHP): >16 µg/mL
MIC ([5]; MMX 1195, CLSI QC, ATCC 49619): >16 µg/mL
MIC ([5]; MMX 3130, PSSP, UCLA): >16 µg/mL
MIC ([5]; MMX 3160, PRSP, UCLA): >16 µg/mL
MIC ([5]; MMX 3937, PSSP, Mt. Sinai): >16 µg/mL
MIC ([5]; MMX 3953, PRSP, Mt. Sinai): >16 µg/mL
MIC ([6]; MMX 3743, Mt. Sinai): >16 µg/mL
MIC ([6]; MMX 4093, UCLA): >16 µg/mL
MIC ([6]; MMX 4106, CHP): >16 µg/mL
MIC ([7]; MMX 100, CLSI QC, ATCC 29213): >8 µg/mL
MIC ([7]; MMX 753, MSSA, CHP): >8 µg/mL
MIC ([7]; MMX 758, MRSA, CHP): >8 µg/mL
MIC ([7]; MMX 2055, MRSA, UCLA): >8 µg/mL
MIC ([7]; MMX 2063, MSSA, UCLA): >8 µg/mL
MIC ([7]; MMX 3856, MSSA, Mt. Sinai): >8 µg/mL
MIC ([7]; MMX 3894, MRSA, Mt. Sinai): >8 µg/mL

MIC ([1]; Enterococcus faecalis, ATCC29212, MMX 101, CLSI QC, ATCC 29212, read-out: MIC (converted)): 2 µg/mL (≈ 5.93 µM)
MIC ([1]; Enterococcus faecalis, MMX 742, VSE, CHP, read-out: MIC (converted)): 2 µg/mL (≈ 5.93 µM)
MIC ([1]; Enterococcus faecalis, MMX 3199, VSE, UCLA, read-out: MIC (converted)): 2 µg/mL (≈ 5.93 µM)
MIC ([1]; Enterococcus faecalis, MMX 3896, VSE, Mt. Sinai, read-out: MIC (converted)): 1 µg/mL (≈ 2.96 µM)
MIC ([1]; MMX 3821, VRE, Mt. Sinai, read-out: MIC (converted)): 2 µg/mL (≈ 5.93 µM)
MIC ([1]; MMX 4131, VRE, CHP, read-out: MIC (converted)): 2 µg/mL (≈ 5.93 µM)
MIC ([1]; MMX 4160, VRE, UCLA, read-out: MIC (converted)): 2 µg/mL (≈ 5.93 µM)
MIC ([2]; Staphylococcus epidermidis, MMX 835, MSSE, UCLA, read-out: MIC): 1 µg/mL (≈ 2.96 µM)
MIC ([2]; Staphylococcus epidermidis, MMX 3703, MSSE, CHP, read-out: MIC): 1 µg/mL (≈ 2.96 µM)
MIC ([2]; Staphylococcus epidermidis, MMX 3763, MSSE, Mt. Sinai, read-out: MIC): 2 µg/mL (≈ 5.93 µM)
MIC ([2]; Staphylococcus epidermidis, MRSE, MMX 762, MRSE, CHP, read-out: MIC): 1 µg/mL (≈ 2.96 µM)
MIC ([2]; Staphylococcus epidermidis, MRSE, MMX 826, MRSE, UCLA, read-out: MIC): 1 µg/mL (≈ 2.96 µM)
MIC ([2]; Staphylococcus epidermidis, MRSE, MMX 3752, MRSE, Mt. Sinai, read-out: MIC): 1 µg/mL (≈ 2.96 µM)
MIC ([3]; MMX 2572, UCLA): 1 µg/mL (≈ 2.96 µM)
MIC ([3]; MMX 3928, Mt. Sinai): 1 µg/mL (≈ 2.96 µM)
MIC ([3]; Streptococcus pyogenes, MMX 718, CHP, read-out: MIC): 1 µg/mL (≈ 2.96 µM)
MIC ([4]; Enterococcus faecium, MMX 0799, VSE, CHP, read-out: MIC): 2 µg/mL (≈ 5.93 µM)
MIC ([4]; Enterococcus faecium, MMX 0845, VSE, UCLA, read-out: MIC): 2 µg/mL (≈ 5.93 µM)
MIC ([4]; Enterococcus faecium, MMX 1259, VSE, Mt. Sinai, read-out: MIC): 4 µg/mL (≈ 11.9 µM)
MIC ([4]; MMX 1238, VRE, Mt. Sinai, read-out: MIC): 2 µg/mL (≈ 5.93 µM)
MIC ([4]; MMX 4024, VRE, CHP, read-out: MIC): 4 µg/mL (≈ 11.9 µM)
MIC ([4]; MMX 4048, VRE, UCLA, read-out: MIC): 4 µg/mL (≈ 11.9 µM)
MIC ([5]; Streptococcus pneumoniae, ATCC49619, MMX 1195, CLSI QC, ATCC 49619, read-out: MIC (converted)): 1 µg/mL (≈ 2.96 µM)
MIC ([5]; Streptococcus pneumoniae, MMX 866, PSSP, CHP, read-out: MIC (converted)): 1 µg/mL (≈ 2.96 µM)
MIC ([5]; Streptococcus pneumoniae, MMX 3130, PSSP, UCLA, read-out: MIC (converted)): 1 µg/mL (≈ 2.96 µM)
MIC ([5]; Streptococcus pneumoniae, MMX 3937, PSSP, Mt. Sinai, read-out: MIC (converted)): 1 µg/mL (≈ 2.96 µM)
MIC ([5]; Streptococcus pneumoniae, PRSP, MMX 748, PRSP, CHP, read-out: MIC (converted)): 0.5 µg/mL (≈ 1.48 µM)
MIC ([5]; Streptococcus pneumoniae, PRSP, MMX 3160, PRSP, UCLA, read-out: MIC (converted)): 1 µg/mL (≈ 2.96 µM)
MIC ([5]; Streptococcus pneumoniae, PRSP, MMX 3953, PRSP, Mt. Sinai, read-out: MIC (converted)): 0.5 µg/mL (≈ 1.48 µM)
MIC ([6]; Streptococcus agalactiae, MMX 3743, Mt. Sinai, read-out: MIC): 1 µg/mL (≈ 2.96 µM)
MIC ([6]; Streptococcus agalactiae, MMX 4093, UCLA, read-out: MIC): 1 µg/mL (≈ 2.96 µM)
MIC ([6]; Streptococcus agalactiae, MMX 4106, CHP, read-out: MIC): 2 µg/mL (≈ 5.93 µM)
MIC ([7]; Staphylococcus aureus, ATCC29213, MMX 100, CLSI QC, ATCC 29213, read-out: MIC (converted)): 4 µg/mL (≈ 11.9 µM)
MIC ([7]; Staphylococcus aureus, MRSA, MMX 758, MRSA, CHP, read-out: MIC (converted)): 4 µg/mL (≈ 11.9 µM)
MIC ([7]; Staphylococcus aureus, MRSA, MMX 2055, MRSA, UCLA, read-out: MIC (converted)): 4 µg/mL (≈ 11.9 µM)
MIC ([7]; Staphylococcus aureus, MRSA, MMX 3894, MRSA, Mt. Sinai, read-out: MIC (converted)): 4 µg/mL (≈ 11.9 µM)
MIC ([7]; Staphylococcus aureus, MSSA, MMX 753, MSSA, CHP, read-out: MIC (converted)): 4 µg/mL (≈ 11.9 µM)
MIC ([7]; Staphylococcus aureus, MSSA, MMX 2063, MSSA, UCLA, read-out: MIC (converted)): 2 µg/mL (≈ 5.93 µM)
MIC ([7]; Staphylococcus aureus, MSSA, MMX 3856, MSSA, Mt. Sinai, read-out: MIC (converted)): 4 µg/mL (≈ 11.9 µM)
Structure (SMILES): CC(=O)NC[C@H]1CN(c2ccc(N3CCOCC3)c(F)c2)C(=O)O1 [Linezolid, reference compound]
